Source: US10143691B2, “Pathogenic control of apoptosis” (CSIR, priority 2014, dated 2018)
Entries after “also recorded” stand apart in the source; their conditions may differ.

Tested on: hnRNP-K
Experiment: Immunofluorescence of hnRNP-K cellular location in iPSC-derived macrophages
Assay type: cell-based
Conditions: iPSC-derived (primary) macrophages, Doxorubicin-treated, no HIV
Protocol: For each experiment, Ghost(3) cells or IPSC-derived primary macrophages were infected or treated with 500 nM Doxorubicin on coverslips, fixed for 10 mins in fresh 4% paraformaldehyde at room temperature, then washed 3 times in PBS and permeabilised for 10 mins in ice-cold methanol at […]. Coverslips were washed once in PBS and incubated in blocking buffer (5% goat serum, 0.3% TritonX100 in PBS) for 60 mins at room temperature. Cells were incubated in primary antibody solution (1% BSA, 0.3% Triton X100 in PBS) overnight at 4° C. Double strand breaks were detected using rabbit polyclonal anti-phosphohistone H2A.X Ser139 (Cell Signaling). Activated ATM was detected using rabbit monoclonal anti-phosphoATM Ser1981 (Cell Signaling). The ability of p53 to regulate apoptosis was detected using rabbit polyclonal antiphosphop53 Ser46 (Cell Signaling). Viral p24 was detected using mouse monoclonal anti-HIV1p24 (AIDS Research and Reference Reagent Program, Division of AIDS, NIAID, NIH). HuR was detected using mouse monoclonal anti-HuR 3A2 (Santa Cruz Biotechnology). hnRNPK was detected using goat polyclonal anti-hnRNPK P20 (Santa Cruz Biotechnology). Coverslips were washed 3 times (5 mins each on an orbital shaker) with wash buffer (0.05% Tween20 in PBS), followed by incubation with secondary antibodies conjugated to either Atto550 or Atto565 or Atto647 for 60 mins at room temperature. […]

SMILES: COc1cccc2c1C(=O)c1c(O)c3c(c(O)c1C2=O)C[C@@](O)(C(=O)CO)C[C@@H]3O[C@H]1C[C@H](N)[C@H](O)[C@H](C)O1 [Doxorubicin]
- cellular location of hnRNP-K: nuclear hnRNP-K within 8 hours; also recorded: nuclear hnRNPK within 8 hours
